In patent US11970498B2, “CDK2 inhibitors” (BLUEPRINT MEDICINES CORPORATION, priority 2021, dated 2024):

How the values were obtained:
CDK1/Cyclin B1, GST-tag = target: T1, CDK1/Cyclin B1, GST-tag (Homo sapiens, UniProt P06493); assay: CDK1/Cyclin B1 biochemical phosphorylation assay (Caliper mobility shift); details: apparent IC50; 1.0 mM ATP or ATP Km; 1.5 nM enzyme; 25° C.
T1 construct: GST
Summary of the method: (§1)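 7.5 µM 5-FAM-QSPKKG-CONH2 peptide phosphorylated by CDK2/Cyclin E (1.25 nM) or GST-CDK1/Cyclin B1 (1.5 nM) at 1.0 mM ATP or ATP Km, in HEPES pH 7.5, MgCl2, Brij-35, DTT, 1% DMSO, 25 °C to 10–20% conversion. EDTA stop; Caliper mobility-shift readout; apparent IC50 from percent activity vs log concentration.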

CDK2/Cyclin E = CDK2/Cyclin E (Homo sapiens, UniProt P24941); assay: CDK2/Cyclin E biochemical phosphorylation assay (Caliper mobility shift); details: apparent IC50; 1.0 mM ATP or ATP Km; 1.25 nM enzyme; 25° C.; read-out: CDK2/cyclin E1 IC50
Summary of the method: as §1

T1 sequence (P06493 whole entry): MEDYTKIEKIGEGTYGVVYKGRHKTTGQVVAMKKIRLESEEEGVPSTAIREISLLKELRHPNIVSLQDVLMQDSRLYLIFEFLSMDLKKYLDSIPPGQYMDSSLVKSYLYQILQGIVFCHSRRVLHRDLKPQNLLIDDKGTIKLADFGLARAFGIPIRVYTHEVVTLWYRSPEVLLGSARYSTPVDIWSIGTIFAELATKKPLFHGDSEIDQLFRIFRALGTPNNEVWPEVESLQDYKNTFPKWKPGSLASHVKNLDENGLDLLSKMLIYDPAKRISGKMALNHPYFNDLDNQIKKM
T1 sequence (P14635 whole entry partner): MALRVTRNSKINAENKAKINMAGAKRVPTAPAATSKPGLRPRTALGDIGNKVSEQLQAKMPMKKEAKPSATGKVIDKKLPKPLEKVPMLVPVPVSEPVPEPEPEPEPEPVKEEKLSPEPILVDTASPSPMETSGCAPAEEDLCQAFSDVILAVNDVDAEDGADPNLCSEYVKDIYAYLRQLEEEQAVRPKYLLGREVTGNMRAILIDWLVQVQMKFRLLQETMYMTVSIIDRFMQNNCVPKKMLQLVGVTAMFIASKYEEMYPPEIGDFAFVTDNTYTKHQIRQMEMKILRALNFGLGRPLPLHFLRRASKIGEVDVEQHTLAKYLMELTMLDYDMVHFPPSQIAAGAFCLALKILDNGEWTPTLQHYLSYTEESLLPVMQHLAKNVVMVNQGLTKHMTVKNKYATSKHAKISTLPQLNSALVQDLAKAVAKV

IC50 (CDK1/Cyclin B1, GST-tag) [µM] | IC50 (CDK2/Cyclin E) [µM] | Structure (SMILES)
0.1 to 0.5 | ≤ 0.01 | C[C@@H](O)c1nn(CC2CCOCC2)c2nc(Nc3cc(OC(F)F)[nH]n3)cnc12 (single isomer, unassigned) [Example 175, (R)-1-(6-((5-(difluoromethoxy)-1H-pyrazol-3-yl)amino)-1-((tetrahydro-2H-pyran-4-yl)methyl)-1H-pyrazolo[3,4-b]pyrazin-3-yl)ethan-1-ol or (S)-1-(6-((5-(difluoromethoxy)-1H-pyrazol-3-yl)amino)-1-((tetrahydro-2H-pyran-4-yl)methyl)-1H-pyrazolo[3,4-b]pyrazin-3-yl)ethan-1-ol]
0.1 to 0.5 | ≤ 0.01 | C[C@@H](O)c1nn(CC2CCOCC2)c2nc(Nc3cc(OC(F)F)[nH]n3)cnc12 (single isomer, unassigned) [Example 176, (S)-1-(6-((5-(difluoromethoxy)-1H-pyrazol-3-yl)amino)-1-((tetrahydro-2H-pyran-4-yl)methyl)-1H-pyrazolo[3,4-b]pyrazin-3-yl)ethan-1-ol or (R)-1-(6-((5-(difluoromethoxy)-1H-pyrazol-3-yl)amino)-1-((tetrahydro-2H-pyran-4-yl)methyl)-1H-pyrazolo[3,4-b]pyrazin-3-yl)ethan-1-ol]
≥ 0.5 | ≤ 0.01 | C[C@@H](O)c1nn([C@@H](C)c2cccnc2)c2nc(Nc3cc(OC(F)F)[nH]n3)cnc12 (single isomer, unassigned) [Example 177, (R)-1-(6-((5-(difluoromethoxy)-1H-pyrazol-3-yl)amino)-1-((S)-1-(pyridin-3-yl)ethyl)-1H-pyrazolo[3,4-b]pyrazin-3-yl)ethan-1-ol or (S)-1-(6-((5-(difluoromethoxy)-1H-pyrazol-3-yl)amino)-1-((S)-1-(pyridin-3-yl)ethyl)-1H-pyrazolo[3,4-b]pyrazin-3-yl)ethan-1-ol]
≥ 0.5 | ≤ 0.01 | C[C@@H](O)c1nn([C@@H](C)c2cccnc2)c2nc(Nc3cc(OC(F)F)[nH]n3)cnc12 (single isomer, unassigned) [Example 178, (S)-1-(6-((5-(difluoromethoxy)-1H-pyrazol-3-yl)amino)-1-((S)-1-(pyridin-3-yl)ethyl)-1H-pyrazolo[3,4-b]pyrazin-3-yl)ethan-1-ol or (R)-1-(6-((5-(difluoromethoxy)-1H-pyrazol-3-yl)amino)-1-((S)-1-(pyridin-3-yl)ethyl)-1H-pyrazolo[3,4-b]pyrazin-3-yl)ethan-1-ol]
≥ 0.5 | 0.03 to 0.1 | O[C@@H]1C[C@H]1Cn1ncc2ncc(Nc3cc(OC(F)F)[nH]n3)nc21 (single isomer, unassigned) [Example 179, (1R,2S)-2-((6-((5-(difluoromethoxy)-1H-pyrazol-3-yl)amino)-1H-pyrazolo[3,4-b]pyrazin-1-yl)methyl)cyclopropan-1-ol or (1S,2R)-2-((6-((5-(difluoromethoxy)-1H-pyrazol-3-yl)amino)-1H-pyrazolo[3,4-b]pyrazin-1-yl)methyl)cyclopropan-1-ol]
≥ 0.5 | 0.02 to 0.03 | O[C@@H]1C[C@H]1Cn1ncc2ncc(Nc3cc(OC(F)F)[nH]n3)nc21 (single isomer, unassigned) [Example 180, (1S,2R)-2-((6-((5-(difluoromethoxy)-1H-pyrazol-3-yl)amino)-1H-pyrazolo[3,4-b]pyrazin-1-yl)methyl)cyclopropan-1-ol or (1R,2S)-2-((6-((5-(difluoromethoxy)-1H-pyrazol-3-yl)amino)-1H-pyrazolo[3,4-b]pyrazin-1-yl)methyl)cyclopropan-1-ol]
≥ 0.5 | ≤ 0.01 | C[C@@H](O)c1nn([C@@H](C)C2CCOCC2)c2nc(Nc3cc(OC(F)F)[nH]n3)cnc12 (single isomer, unassigned) [Example 181, (R)-1-(6-((5-(difluoromethoxy)-1H-pyrazol-3-yl)amino)-1-((S)-1-(tetrahydro-2H-pyran-4-yl)ethyl)-1H-pyrazolo[3,4-b]pyrazin-3-yl)ethan-1-ol or (S)-1-(6-((5-(difluoromethoxy)-1H-pyrazol-3-yl)amino)-1-((S)-1-(tetrahydro-2H-pyran-4-yl)ethyl)-1H-pyrazolo[3,4-b]pyrazin-3-yl)ethan-1-ol]
≥ 0.5 | ≤ 0.01 | C[C@@H](O)c1nn([C@@H](C)C2CCOCC2)c2nc(Nc3cc(OC(F)F)[nH]n3)cnc12 (single isomer, unassigned) [Example 182, (S)-1-(6-((5-(difluoromethoxy)-1H-pyrazol-3-yl)amino)-1-((S)-1-(tetrahydro-2H-pyran-4-yl)ethyl)-1H-pyrazolo[3,4-b]pyrazin-3-yl)ethan-1-ol or (R)-1-(6-((5-(difluoromethoxy)-1H-pyrazol-3-yl)amino)-1-((S)-1-(tetrahydro-2H-pyran-4-yl)ethyl)-1H-pyrazolo[3,4-b]pyrazin-3-yl)ethan-1-ol]
≥ 0.5 | 0.03 to 0.1 | FC[C@H](C1CCOCC1)n1ncc2ncc(Nc3cc(OC(F)F)[nH]n3)nc21 (single isomer, unassigned) [Example 183]
≥ 0.5 | 0.03 to 0.1 | CC1(C)C[C@H](Cn2ncc3ncc(Nc4cc(OC(F)F)[nH]n4)nc32)C(=O)N1 (single isomer, unassigned) [Example 184, (R)-3-((6-((5-(difluoromethoxy)-1H-pyrazol-3-yl)amino)-1H-pyrazolo[3,4-b]pyrazin-1-yl)methyl)-5,5-dimethylpyrrolidin-2-one or (S)-3-((6-((5-(difluoromethoxy)-1H-pyrazol-3-yl)amino)-1H-pyrazolo[3,4-b]pyrazin-1-yl)methyl)-5,5-dimethylpyrrolidin-2-one]
≥ 0.5 | 0.03 to 0.1 | CC1(C)C[C@H](Cn2ncc3ncc(Nc4cc(OC(F)F)[nH]n4)nc32)C(=O)N1 (single isomer, unassigned) [Example 185, (S)-3-((6-((5-(difluoromethoxy)-1H-pyrazol-3-yl)amino)-1H-pyrazolo[3,4-b]pyrazin-1-yl)methyl)-5,5-dimethylpyrrolidin-2-one or (R)-3-((6-((5-(difluoromethoxy)-1H-pyrazol-3-yl)amino)-1H-pyrazolo[3,4-b]pyrazin-1-yl)methyl)-5,5-dimethylpyrrolidin-2-one]
≥ 0.5 | 0.01 to 0.02 | COc1cc(Nc2cnc3cnn([C@@H](C)c4cc(F)ccn4)c3n2)n[nH]1 (single isomer, unassigned) [Example 186, (S)-1-(1-(4-fluoropyridin-2-yl)ethyl)-N-(5-methoxy-1H-pyrazol-3-yl)-1H-pyrazolo[3,4-b]pyrazin-6-amine or (R)-1-(1-(4-fluoropyridin-2-yl)ethyl)-N-(5-methoxy-1H-pyrazol-3-yl)-1H-pyrazolo[3,4-b]pyrazin-6-amine]
≥ 0.5 | > 0.1 | COc1cc(Nc2cnc3cnn([C@@H](C)c4cc(F)ccn4)c3n2)n[nH]1 (single isomer, unassigned) [Example 187, (R)-1-(1-(4-fluoropyridin-2-yl)ethyl)-N-(5-methoxy-1H-pyrazol-3-yl)-1H-pyrazolo[3,4-b]pyrazin-6-amine or (S)-1-(1-(4-fluoropyridin-2-yl)ethyl)-N-(5-methoxy-1H-pyrazol-3-yl)-1H-pyrazolo[3,4-b]pyrazin-6-amine]
≥ 0.5 | 0.03 to 0.1 | C[C@@H](c1cc(Cl)ccn1)n1ncc2ncc(Nc3cc(OC(F)F)[nH]n3)nc21 (single isomer, unassigned) [Example 188, (S)-1-(1-(4-chloropyridin-2-yl)ethyl)-N-(5-(difluoromethoxy)-1H-pyrazol-3-yl)-1H-pyrazolo[3,4-b]pyrazin-6-amine or (R)-1-(1-(4-chloropyridin-2-yl)ethyl)-N-(5-(difluoromethoxy)-1H-pyrazol-3-yl)-1H-pyrazolo[3,4-b]pyrazin-6-amine]
≥ 0.5 | > 0.1 | C[C@@H](c1cc(Cl)ccn1)n1ncc2ncc(Nc3cc(OC(F)F)[nH]n3)nc21 (single isomer, unassigned) [Example 189, (R)-1-(1-(4-chloropyridin-2-yl)ethyl)-N-(5-(difluoromethoxy)-1H-pyrazol-3-yl)-1H-pyrazolo[3,4-b]pyrazin-6-amine or (S)-1-(1-(4-chloropyridin-2-yl)ethyl)-N-(5-(difluoromethoxy)-1H-pyrazol-3-yl)-1H-pyrazolo[3,4-b]pyrazin-6-amine]
≥ 0.5 | > 0.1 | N#C[C@H]1C[C@H](Cn2ncc3ncc(Nc4cc(OC(F)F)[nH]n4)nc32)C1 (single isomer, unassigned) [Example 190, (1r,3r)-3-((6-((5-(difluoromethoxy)-1H-pyrazol-3-yl)amino)-1H-pyrazolo[3,4-b]pyrazin-1-yl)methyl)cyclobutane-1-carbonitrile or (1s,3s)-3-((6-((5-(difluoromethoxy)-1H-pyrazol-3-yl)amino)-1H-pyrazolo[3,4-b]pyrazin-1-yl)methyl)cyclobutane-1-carbonitrile]
0.1 to 0.5 | ≤ 0.01 | N#C[C@H]1C[C@H](Cn2ncc3ncc(Nc4cc(OC(F)F)[nH]n4)nc32)C1 (single isomer, unassigned) [Example 191, (1s,3s)-3-((6-((5-(difluoromethoxy)-1H-pyrazol-3-yl)amino)-1H-pyrazolo[3,4-b]pyrazin-1-yl)methyl)cyclobutane-1-carbonitrile or (1r,3r)-3-((6-((5-(difluoromethoxy)-1H-pyrazol-3-yl)amino)-1H-pyrazolo[3,4-b]pyrazin-1-yl)methyl)cyclobutane-1-carbonitrile]
